Assay [1] concerns JAK/STAT pathway. As to the kind of experiment: JAK/STAT protein immunoblotting in HCT8 cells exposed to DSS or IFNγ. The class given is cell-based. The method, then:
HCT8 cells were pretreated with BC-1485 at different concentrations for 16 h before exposed to DSS (2%, 16 h) or IFNγ (10 ng/ml, 1 h). Cells were collected and assayed for protein immunoblotting.
Background: A western blot detects proteins with antibodies after separation by electrophoresis.

Assay [2] has as its target T1, FIEL1 (Mus musculus, UniProt Q8CHG5).
T1 construct: endogenous in cells; host or cells: MLE (murine lung epithelial) cells
T1 sequence (Q8CHG5 1-789): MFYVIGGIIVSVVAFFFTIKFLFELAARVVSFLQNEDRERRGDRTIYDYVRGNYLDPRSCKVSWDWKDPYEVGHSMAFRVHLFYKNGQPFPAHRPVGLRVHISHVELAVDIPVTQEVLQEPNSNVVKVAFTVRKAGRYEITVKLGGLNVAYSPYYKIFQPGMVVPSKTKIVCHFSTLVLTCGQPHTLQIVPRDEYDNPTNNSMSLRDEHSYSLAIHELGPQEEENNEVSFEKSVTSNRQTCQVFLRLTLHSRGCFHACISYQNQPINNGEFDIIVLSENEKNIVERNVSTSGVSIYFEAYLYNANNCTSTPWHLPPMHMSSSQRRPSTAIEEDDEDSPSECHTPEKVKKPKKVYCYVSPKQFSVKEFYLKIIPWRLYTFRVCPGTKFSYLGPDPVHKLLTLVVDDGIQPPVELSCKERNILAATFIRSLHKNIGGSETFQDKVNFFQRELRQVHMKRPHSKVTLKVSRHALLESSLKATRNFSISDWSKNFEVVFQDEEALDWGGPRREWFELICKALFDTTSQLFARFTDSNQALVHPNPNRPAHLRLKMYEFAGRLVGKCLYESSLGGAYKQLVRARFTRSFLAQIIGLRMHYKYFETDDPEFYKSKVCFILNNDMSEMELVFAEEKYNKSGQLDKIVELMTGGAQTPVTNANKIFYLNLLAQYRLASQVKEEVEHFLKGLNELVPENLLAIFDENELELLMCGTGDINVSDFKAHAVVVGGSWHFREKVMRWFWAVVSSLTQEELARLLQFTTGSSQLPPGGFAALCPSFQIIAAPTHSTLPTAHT
Put plainly: PIAS4 protein immunoblot in MLE cells exposed to compounds. To be noted: 18 h, FIG. 7D. The class given is cell-based, murine. The method, then: FIG. 7A. […] FIG. 7B. Structures of the BC-1480 backbone and lead compound BC-1485. FIG. 7C. FIEL1 protein was HIS-purified from FIEL1 expression in 293T cells using cobalt beads. Beads were then extensively washed prior to exposure to BC-1480 or BC-1485 at different concentrations (10^−4 to 100 μM). Purified PIAS4 protein was then incubated with drug-bound FIEL1 beads overnight. Beads were washed, and proteins were eluted and resolved on SDS-PAGE. The relative amounts of PIAS4 detected in the pull-downs was normalized to loading and quantified (n=2). FIG. 7D. MLE cells were exposed to BC-1480 or BC-1485 at various concentrations for 18 h. Cells were then collected and immunoblotted. FIGS. 7E-J. C57BL/6J mice were administered with bleomycin (0.05 U) for 7-21 days. Compounds BC-1480 and BC-1485 were given to mice through drinking water with an estimated dose of 5 mg/kg/d. Mice were euthanized, and lungs were lavaged with saline, harvested, and then homogenized. Lavage proteins, CXCL1, and total cell count were measured in FIGS. 7E-G. H. Survival studies of mice that were given bleomycin and compound treatments. Mice were carefully monitored over time; moribund, preterminal animals were immediately euthanized and recorded as deceased. […] Hydroxyproline contents were measured in lungs from 7, 14, and 21d after bleomycin challenge. […]

The mark [3] stands for this setting: 16 h pretreatment, then DSS 2% 16 h or IFNγ 10 ng/ml 1 h.

Entries after “also recorded” stand apart in the source; their conditions may differ. Where only a bound is given, the exact number is not on record here.

In the case of `CC(NC(=O)c1ccc(NS(=O)(=O)c2ccc3[nH]c(=O)[nH]c3c2)cc1)C(=O)N(C)C` (stereo not drawn) [BC-1485], the JAK/STAT pathway signaling entry in assay [1] was “inhibits the signaling transduction; also recorded: inhibits JAK/STAT pathway”. In assay [1] (setting [3]), the JAK1 protein level entry was “effectively decreases”, the JAK2 protein level result is “effectively decreases”, the p-Stat1 protein level entry is listed as “effectively decreases” and the p-Stat3 protein level entry was “effectively decreases”. Moreover, in assay [2], the “activity in increasing PIAS4 protein levels compared to BC-1480” value is > 100 fold.

Values taken from US10968183B2, “Small molecule FIEL1 inhibitor in inflammatory and fibrotic lung injury” (UNIVERSITY OF PITTSBURGH—OF THE COMMONWEALTH SYSTEM OF …, priority 2015, dated 2021).
